Drawing on EP2650284A1, “Heterocyclic derivatives as metabotropic glutamate receptor modulators” (Merz Pharma GmbH & Co. KGaA, priority 2012, dated 2013), this text covers h left shift, Ki and EC50 for eight molecules.

Assay [1] deals with T1, human metabotropic glutamate receptor mGluR5 (Homo sapiens, UniProt P41594).
T1 construct: expressed in transfected cells; host or cells: CHO-K1 (h5CHO), IPTG-inducible
In words: Cytosolic calcium studies with stably transfected cells (h5CHO), functional assay of mGluR5 receptors. It is filed as cell-based. To be noted: for h left shift: h5CHO cells; for EC50: positive modulators, h5CHO cells preincubated with modulator, stimulated by an EC20 concentration of L-glutamate, read-out: hEC50. In short, it runs like this:
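IPTG-induced h5CHO (CHO-K1 expressing human mGluR5) loaded with calcium dye; compounds (0.5% DMSO) added 5 min before agonist. NAM IC50 against L-quisqualate at ~EC80; PAM EC50 with EC20 L-glutamate. FLIPR fluorescence, max-minus-min, % of maximal response, logistic fit.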

The target in a further assay is T2, mGluR5 binding site (Rattus norvegicus, UniProt P31424).
T2 construct: from tissue; host or cells: cortex of adult male Sprague-Dawley rats, membrane preparation
In words: [3H]-M-MPEP displacement studies on rat cortical membranes. To be noted: Table A3, [3H]-M-MPEP 2 nM, 4°C for 1 h, median, read-out: Ki (MMPEP). How it is done:
Tissue preparation is performed according to Foster & Wong (Br. J. Pharmacol., 1987, 91, 403-409) with some modifications. Anaesthetised male Sprague-Dawley rats (200-250 g, Janvier, Le Genest-Isle, France) are decapitated and their brains are removed rapidly. The cortex is dissected out and processed as described by Parsons, et al. (J. Pharmacol. Exp. Ther., 1997, 283(3): 1264-1275). For isolation of the cell membranes, the cortices are homogenized in 20 volumes of ice-cold 0.32 M sucrose (Sigma-Aldrich, Taufkirchen, Germany) using a glass-Teflon homogenizer. The homogenate is centrifuged at 1000 x g for 10 minutes, the pellet is discarded and the supernatant centrifuged at 20,000 x g for 20 minutes. The resulting pellet is resuspended in 20 volumes of distilled water and centrifuged for 20 minutes at 8000 x g. The supernatant and the buffy coat are then centrifuged six times (48,000 x g for 20 minutes) in the presence of 5 mM Tris-HCl, pH 7.5. All centrifugation steps are carried out at 4°C. After resuspension in 5 volumes of 5 mM Tris-HCl, pH 7.5, the membrane suspension is frozen rapidly at -80°C.
On the day of assay, the membrane suspensions are thawed, centrifuged (48,000 x g for 20 minutes) and then resuspended in 50 mM Tris-HCl, pH 7.5 (assay buffer). The amount of protein in the final membrane preparation is determined according to the method of Lowry, et al. (J. Biol. Chem., 1951, 193, 256-275). The final concentration used for our studies is 400 µg / ml.
The Tecan robotic system designed for binding assays is loaded with the membrane solution, a 96 well stock plate containing the solutions for bound control (buffer/DMSO 10%), unlabeled MPEP (10 µM) for evaluation of non-specific binding, all compounds to be tested (at 20-fold concentrations), various empty 96-well plates for dilutions and the final assay plates, as well as a 96-well plate filled with the radioligand.
Before performing displacement studies, saturation experiments are performed to determine the equilibrium dissociation constant (Kd, Cheng and Prussoff, Biochem. Pharmacol., 1973, 22: 3099-3108) of [^3H]-M-MPEP, which is a parameter for the affinity of the radioligand to the binding site. On the basis of the saturation experiments, a final [^3H]-M-MPEP concentration of 2 nM was selected.
Firstly, the assay plates are loaded with membrane solution and are shaken at 4°C. The mother plates were then prepared by pipetting the compounds (n = 5) into assay buffer/10% DMSO to obtain the desired final concentrations. After transferring radioligand into the assay plates, the compounds are added (including the non-specific binding control containing MPEP). The final DMSO concentration is always 1 %. The assay plates are incubated and shaken at 4°C for 1 h, before the mixture is exhausted as rapidly as possible via a vacuum manifold using the Multiscreen HTS glass fibre (type B) high flow filter plates (Millipore, Schwalbach, Germany) under a constant vacuum of 450 mbar. The membranes are washed four times with cold assay buffer (100 µL). 50 µL of Ultima Gold scintillation cocktail (PerkinElmer) is added to the wet filter plates and incubated at rt overnight before counting the disintegration per minutes using a liquid scintillation counter (MicroBeta, PerkinElmer).
For the evaluation of the test compound binding affinity to the mGluR5 binding site and its potency to displace [^3H]-M-MPEP, the measured radioactivity of the radioligand alone was set as 100% bound control and the non-specific binding of the radioligand represented the 0% control. The residual radioactivity after displacement of the test compound was then corrected with respect to the set controls. Data are given as median IC50 and Ki, respectively.

Setting [2] is: Table A3 (SAMs / very weak PAMs), agonist EC50 shift with 10 µM modulator or vehicle.
Where [3] appears, read: Table A1, left shift of agonist EC50, dose response curves in the presence of 10 µM modulator or vehicle.

T1 sequence (P41594 21-1212): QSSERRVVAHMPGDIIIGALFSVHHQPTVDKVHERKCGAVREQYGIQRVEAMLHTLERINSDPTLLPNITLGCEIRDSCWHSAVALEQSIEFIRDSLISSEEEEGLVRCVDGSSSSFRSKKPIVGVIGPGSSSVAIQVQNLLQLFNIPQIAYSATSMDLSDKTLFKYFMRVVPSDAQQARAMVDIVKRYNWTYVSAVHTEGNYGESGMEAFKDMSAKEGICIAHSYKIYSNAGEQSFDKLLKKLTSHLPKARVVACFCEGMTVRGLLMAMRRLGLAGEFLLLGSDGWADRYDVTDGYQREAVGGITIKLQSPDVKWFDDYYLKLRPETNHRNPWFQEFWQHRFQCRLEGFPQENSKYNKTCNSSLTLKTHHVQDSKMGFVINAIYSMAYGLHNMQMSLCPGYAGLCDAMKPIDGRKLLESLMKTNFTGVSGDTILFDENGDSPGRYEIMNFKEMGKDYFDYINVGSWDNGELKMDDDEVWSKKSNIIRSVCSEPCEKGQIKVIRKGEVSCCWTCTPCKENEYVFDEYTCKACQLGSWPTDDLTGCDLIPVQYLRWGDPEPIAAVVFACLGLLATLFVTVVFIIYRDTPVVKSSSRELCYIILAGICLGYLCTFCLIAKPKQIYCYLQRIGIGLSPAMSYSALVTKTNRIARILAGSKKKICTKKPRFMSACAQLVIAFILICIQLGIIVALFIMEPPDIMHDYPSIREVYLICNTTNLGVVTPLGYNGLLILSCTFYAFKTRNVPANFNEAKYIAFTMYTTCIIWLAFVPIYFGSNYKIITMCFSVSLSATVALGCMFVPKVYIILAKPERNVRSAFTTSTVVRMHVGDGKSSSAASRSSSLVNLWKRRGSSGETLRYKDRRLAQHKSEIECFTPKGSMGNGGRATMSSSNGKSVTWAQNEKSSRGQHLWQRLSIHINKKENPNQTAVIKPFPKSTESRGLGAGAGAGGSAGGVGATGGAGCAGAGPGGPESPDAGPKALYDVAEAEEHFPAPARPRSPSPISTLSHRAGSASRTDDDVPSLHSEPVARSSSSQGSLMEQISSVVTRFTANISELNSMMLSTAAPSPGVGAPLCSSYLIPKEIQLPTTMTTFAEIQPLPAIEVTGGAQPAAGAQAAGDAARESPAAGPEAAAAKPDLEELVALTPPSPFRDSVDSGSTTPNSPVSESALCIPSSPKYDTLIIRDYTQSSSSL
T2 sequence (P31424 21-1203): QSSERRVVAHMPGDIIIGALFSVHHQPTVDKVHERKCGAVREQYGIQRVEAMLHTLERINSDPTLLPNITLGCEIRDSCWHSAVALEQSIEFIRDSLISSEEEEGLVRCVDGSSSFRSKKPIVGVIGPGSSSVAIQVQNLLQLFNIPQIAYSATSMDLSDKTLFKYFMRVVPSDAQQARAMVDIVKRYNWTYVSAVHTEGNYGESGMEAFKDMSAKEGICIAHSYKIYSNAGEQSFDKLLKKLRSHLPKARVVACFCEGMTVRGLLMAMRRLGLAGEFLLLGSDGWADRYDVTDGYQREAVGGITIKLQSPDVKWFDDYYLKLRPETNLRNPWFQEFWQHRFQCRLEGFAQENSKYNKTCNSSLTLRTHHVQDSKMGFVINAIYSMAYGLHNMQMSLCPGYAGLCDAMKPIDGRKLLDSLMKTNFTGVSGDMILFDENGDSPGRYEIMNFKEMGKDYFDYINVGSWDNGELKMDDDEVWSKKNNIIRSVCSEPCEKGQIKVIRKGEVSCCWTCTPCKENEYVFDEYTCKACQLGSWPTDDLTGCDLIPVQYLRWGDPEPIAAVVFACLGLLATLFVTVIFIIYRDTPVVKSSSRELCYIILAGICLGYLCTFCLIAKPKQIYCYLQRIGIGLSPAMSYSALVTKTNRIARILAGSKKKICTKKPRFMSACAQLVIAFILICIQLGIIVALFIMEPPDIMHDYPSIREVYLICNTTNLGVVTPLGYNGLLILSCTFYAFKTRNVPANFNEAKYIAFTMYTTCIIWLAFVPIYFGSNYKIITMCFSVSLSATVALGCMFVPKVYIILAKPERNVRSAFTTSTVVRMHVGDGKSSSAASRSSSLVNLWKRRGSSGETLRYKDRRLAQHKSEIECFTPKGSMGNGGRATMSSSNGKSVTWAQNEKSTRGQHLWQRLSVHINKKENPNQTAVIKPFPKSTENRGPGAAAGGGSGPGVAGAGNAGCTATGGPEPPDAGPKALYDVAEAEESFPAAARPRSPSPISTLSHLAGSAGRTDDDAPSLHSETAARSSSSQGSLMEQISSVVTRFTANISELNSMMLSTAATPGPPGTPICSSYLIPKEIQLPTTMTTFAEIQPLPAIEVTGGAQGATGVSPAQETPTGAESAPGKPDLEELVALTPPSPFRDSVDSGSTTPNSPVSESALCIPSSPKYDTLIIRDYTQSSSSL

What is called Ki is the dissociation constant of the complex between target and ligand, obtained from inhibition or displacement. As to `CCCN1CCO[C@@H]2c3cc(C#Cc4cccc(C)c4)cnc3CC[C@@H]21` (racemic) [Example 21, (rac)-cis-4-Propyl-9-(m-tolylethynyl)-3,4,4a,5,6,10b-hexahydro-2H-[1,4]oxazino[2,3-f]quinoline], in assay [1] (setting [2]), the h left shift was 1.3-fold. In addition, at mGluR5 binding site, the Ki was 1720 nM.

For `COC(=O)N1CC[C@H]2CCc3ncc(C#Cc4ccccc4)cc3[C@H]21` (racemic) [Example 29, (rac)-cis-Methyl 8-(phenylethynyl)-2,3,3a,4,5,9b-hexahydro-1H-pyrrolo[2,3-f]quinoline-1-carboxylate], the h left shift in assay [1] (setting [2]) is listed as 1.3-fold. Besides, at mGluR5 binding site, the Ki was found to be 289 nM.

As to `CCCN1CC2(CCCc3ncc(C#Cc4cccc(C)c4)cc32)OC1=O` (racemic) [Example 64, (rac)-3-Propyl-3'-(m-tolylethynyl)-7',8'-dihydro-6'H-spiro[oxazolidine-5,5'-quinolin]-2-one], the h left shift in assay [1] (setting [2]) is on record as 1.2-fold. For the same molecule, the Ki at mGluR5 binding site came to 399 nM.

For the molecule `CCCN1CC2(CCCc3ncc(C#Cc4cccc(F)c4)cc32)OC1=O` (racemic) [Example 66, (rac)-3'-((3-Fluorophenyl)ethynyl)-3-propyl-7',8'-dihydro-6'H-spiro[oxazolidine-5,5'-quinolin]-2-one], the h left shift in assay [1] (setting [2]) is reported as 1.6-fold. In addition, the inhibition constant Ki at mGluR5 binding site worked out at 857 nM.

On to `COC1CCCc2ncc(C#Cc3ccccc3)cc21` (single isomer, unassigned) [Example 2, 5-Methoxy-3-(phenylethynyl)-5,6,7,8-tetrahydroquinoline], for which the h left shift in assay [1] (setting [3]) and in assay [1] (setting [2]) was 2.3-fold in each case. Further, the EC50 in assay [1] (Table A1) came out at 20.9 nM. For the same molecule, the Ki on mGluR5 binding site stood at 204 nM.

As for `CCCN1CCO[C@@H]2c3cc(C#Cc4ccccc4)cnc3CC[C@@H]21` (single isomer, unassigned) [Example 17, cis-9-(Phenylethynyl)-4-propyl-3,4,4a,5,6,10b-hexahydro-2H-[1,4]oxazino[2,3-f]quinoline], the h left shift in assay [1] (setting [3]) and in assay [1] (setting [2]) was 2.3-fold each time. The EC50 in assay [1] (Table A1) stood at 388 nM. The inhibition constant (Ki) at mGluR5 binding site is 3620 nM.

In the case of `CC(C)C(=O)N1CCc2ncc(C#Cc3ccccc3)cc2C1` [Example 33, 2-Methyl-1-(3-(phenylethynyl)-7,8-dihydro-1,6-naphthyridin-6(5H)-yl)propan-1-one], the h left shift in assay [1] (setting [2]) is listed as 1.4-fold. Also, the inhibition constant Ki on mGluR5 binding site is 395 nM.

`CCOC(=O)N1CCc2ncc(C#Cc3ccccc3)cc2C1` [Example 40, Ethyl 3-(phenylethynyl)-7,8-dihydro-1,6-naphthyridine-6(5H)-carboxylate]: the h left shift in assay [1] (setting [2]) is 1.3-fold. Also, the Ki at mGluR5 binding site stood at 56.5 nM.
